Data on 33 molecules can be found in patent US20160002226A1, “PYRI[…] AND THEIR USE IN THE TREATMENT, AMELIORATION OR PREVENTION OF INFLUENZA” (F. Hoffmann-La Roche AG, priority 2014, published 2016).

The first test addresses T1, influenza A virus (IAV) PA-Nter fragment (amino acids 1-209) (Influenza A virus, UniProt P31343).
T1 construct: PA-Nter fragment (amino acids 1-209); made in house
Kind of test: FRET endonuclease activity assay. Format: biochemical. Particulars: PA-Nter 0.5 μM, 1.6 μM RNA substrate.
For orientation: IC50 means the concentration needed to halve the response being measured. Regarding `CC(C)N1CCn2c(CNC3CCCCC3)cc(=O)c(O)c2C1=O`, 497 nM corresponded to half-maximal inhibition (IC50). In other words, the sub-micromolar range.
The same measure, in the same setting: with `CC(C)N1CCn2c(CN(C(=O)Cc3ccc(F)cc3F)C3CCCCC3)cc(=O)c(O)c2C1=O` the figure was 580 nM.
Molecule `CN1CCn2c(CNS(=O)(=O)c3ccc(Cl)cc3)cc(=O)c(O)c2C1=O` displayed an IC50 of 130 nM.
In turn, `CC(C)N1CCn2c(CN(C)C)cc(=O)c(O)c2C1=O` showed an IC50 of 92 nM.
The same measure, in the same setting: the figure for `CC(C)N1CCn2c(CNC(c3ccccc3)c3ccccc3)cc(=O)c(O)c2C1=O` is 1130 nM.
For `CC(C)N1CCn2c(CNC(=O)c3ccccc3)cc(=O)c(O)c2C1=O`, the “FRET IC50” value was “insoluble”.
The molecule `Cc1noc(C)c1S(=O)(=O)NCc1cc(=O)c(O)c2n1CCN(C(C)C)C2=O` gave an IC50 of 182 nM.
Same read-out and setting: the figure for `CC(C)N1CCn2c(CNS(=O)(=O)c3ccccc3F)cc(=O)c(O)c2C1=O` is 104 nM; for `CC(C)N1CCn2c(CNC3c4ccccc4CCc4ccccc43)cc(=O)c(O)c2C1=O` it is 3620 nM; for `CC(C)N1CCn2c(CNS(=O)(=O)c3ccccc3Cl)cc(=O)c(O)c2C1=O` it is 87 nM.
Take `CC(C)N1CCn2c(CNC(=O)C3CCCCC3)cc(=O)c(O)c2C1=O`: the IC50 came out at 360 nM.
The molecule `CC(C)N1CCn2c(CNC(=O)CCC(F)(F)F)cc(=O)c(O)c2C1=O` gave an IC50 of 250 nM.
For the molecule `CC(C)N1CCn2c(CNC(=O)CC(C)(C)C)cc(=O)c(O)c2C1=O`, it took 380 nM to reach half-maximal inhibition (IC50).
As to `CC(C)N1CCn2c(CNS(=O)(=O)c3cccc(Cl)c3)cc(=O)c(O)c2C1=O`, it took 62 nM to reach half-maximal inhibition (IC50).
`CC(C)CC(=O)N(Cc1cc(=O)c(O)c2n1CCN(C(C)C)C2=O)C1CCCCC1`: the IC50 is 469 nM. This IC50 lies about 7.6-fold higher than the previous one.
Molecule `CC(C)N1CCn2c(CNS(=O)(=O)c3ccc(C#N)cc3)cc(=O)c(O)c2C1=O` came in with an IC50 of 322 nM. This IC50 and that of the molecule before are within 1.5-fold of each other.
Same read-out and setting: with `CC(C)N1CCn2c(CNS(=O)(=O)N(C)C)cc(=O)c(O)c2C1=O` the figure was 90 nM.
Same read-out and setting: the figure for `CC(C)N1CCn2c(CNS(=O)(=O)c3ccc(Cl)cc3Cl)cc(=O)c(O)c2C1=O` is 144 nM.
`CC(C)N1CCn2c(CNC(=O)C3(c4ccc(Cl)cc4)CCCC3)cc(=O)c(O)c2C1=O` had an IC50 of 840 nM.
With `CN1CCn2c(CNS(=O)(=O)c3cccc(Cl)c3)cc(=O)c(O)c2C1=O`, half-maximal inhibition (IC50) required 82 nM.
Take `CC(=O)N(Cc1ccccc1)Cc1cc(=O)c(O)c2n1CCN(C(C)C)C2=O`: it took 44 nM to reach half-maximal inhibition (IC50).
On to `CC(C)N1CCn2c(CN(Cc3ccccc3)Cc3ccccc3)cc(=O)c(O)c2C1=O`, for which half-maximal inhibition (IC50) was put at 1550 nM.
For the molecule `CC(C)N1CCn2c(CNS(=O)(=O)c3ccccc3)cc(=O)c(O)c2C1=O`, the IC50 came to 130 nM.
The molecule `CC(C)N1CCn2c(CNS(=O)(=O)c3ccc(Cl)cc3)cc(=O)c(O)c2C1=O` showed an IC50 of 209 nM.
Still for that read-out and setting: with `CC(C)N1CCn2c(CNC(=O)C34CCC(CO)(CC3)CC4)cc(=O)c(O)c2C1=O` the figure was 1870 nM; with `CCCN(Cc1ccccc1)Cc1cc(=O)c(O)c2n1CCN(C(C)C)C2=O`, 390 nM.
In turn, `CC(C)N1CCn2c(CNC(=O)CC(F)(F)F)cc(=O)c(O)c2C1=O` showed an IC50 of 320 nM.
In the case of `CC(C)N1CCn2c(CNC(=O)c3ccc(Cl)cc3)cc(=O)c(O)c2C1=O`, the IC50 is 245 nM.
In the case of `CC(C)N1CCn2c(CNS(=O)(=O)c3cccc4ccccc34)cc(=O)c(O)c2C1=O`, the 50% inhibitory concentration (IC50) was 124 nM.
On the same count and under the same terms, with `CC(C)N1CCn2c(CN)cc(=O)c(O)c2C1=O` the figure was 493 nM.
Regarding `CC(=O)N(Cc1cc(=O)c(O)c2n1CCN(C(C)C)C2=O)C1CCCCC1`, inhibition was half-maximal at 48 nM (IC50). This IC50 is about 10-fold lower than that of the molecule before.
The same measure, in the same setting: with `CC(C)N1CCn2c(CNS(=O)(=O)c3cccc(F)c3)cc(=O)c(O)c2C1=O` the figure was 153 nM.
Same read-out and setting: the figure for `Cc1ccccc1S(=O)(=O)NCc1cc(=O)c(O)c2n1CCN(C)C2=O` is 48 nM.

The next test deals with influenza A virus A/Aichi/2/68 (H3N2) on MDCK cells. Kind of test: Cytopathic effect (CPE) assay. Format: cell-based. Conditions: Influenza A virus, 48 hrs, the 1st table. A general note: Cytopathic effects are the visible damage that an infection or toxin causes in cultured cells.
Turning to `CC(C)N1CCn2c(CNC3CCCCC3)cc(=O)c(O)c2C1=O`, the IC50 was greater than 50000 nM.
Still for that read-out and setting: the figure for `CC(C)N1CCn2c(CN(C(=O)Cc3ccc(F)cc3F)C3CCCCC3)cc(=O)c(O)c2C1=O` is greater than 50000 nM; for `CN1CCn2c(CNS(=O)(=O)c3ccc(Cl)cc3)cc(=O)c(O)c2C1=O` it is greater than 50000 nM.
Turning to `CC(C)N1CCn2c(CN(C)C)cc(=O)c(O)c2C1=O`, the IC50 was greater than 50000 nM.
In the case of `CC(C)N1CCn2c(CNC(c3ccccc3)c3ccccc3)cc(=O)c(O)c2C1=O`, the IC50 is greater than 50000 nM.
On the same count and under the same terms, the figure for `CC(C)N1CCn2c(CNC(=O)c3ccccc3)cc(=O)c(O)c2C1=O` is greater than 50000 nM; for `Cc1noc(C)c1S(=O)(=O)NCc1cc(=O)c(O)c2n1CCN(C(C)C)C2=O` it is greater than 50000 nM; for `CC(C)N1CCn2c(CNS(=O)(=O)c3ccccc3F)cc(=O)c(O)c2C1=O` it is greater than 50000 nM.
Same read-out and setting: the figure for `CC(C)N1CCn2c(CNC3c4ccccc4CCc4ccccc43)cc(=O)c(O)c2C1=O` is greater than 50000 nM; for `CC(C)N1CCn2c(CNS(=O)(=O)c3ccccc3Cl)cc(=O)c(O)c2C1=O` it is greater than 50000 nM; for `CC(C)N1CCn2c(CNC(=O)C3CCCCC3)cc(=O)c(O)c2C1=O` it is greater than 50000 nM.
For `CC(C)N1CCn2c(CNC(=O)CCC(F)(F)F)cc(=O)c(O)c2C1=O`, the IC50 was greater than 50000 nM.
The same measure, in the same setting: with `CC(C)N1CCn2c(CNC(=O)CC(C)(C)C)cc(=O)c(O)c2C1=O` the figure was greater than 50000 nM; with `CC(C)N1CCn2c(CNS(=O)(=O)c3cccc(Cl)c3)cc(=O)c(O)c2C1=O`, greater than 50000 nM.
Consider `CC(C)CC(=O)N(Cc1cc(=O)c(O)c2n1CCN(C(C)C)C2=O)C1CCCCC1`, for which the IC50 was greater than 50000 nM.
On the same count and under the same terms, the figure for `CC(C)N1CCn2c(CNS(=O)(=O)c3ccc(C#N)cc3)cc(=O)c(O)c2C1=O` is greater than 50000 nM; for `CC(C)N1CCn2c(CNS(=O)(=O)N(C)C)cc(=O)c(O)c2C1=O` it is greater than 50000 nM; for `CC(C)N1CCn2c(CNS(=O)(=O)c3ccc(Cl)cc3Cl)cc(=O)c(O)c2C1=O` it is greater than 50000 nM.
`CC(C)N1CCn2c(CNC(=O)C3(c4ccc(Cl)cc4)CCCC3)cc(=O)c(O)c2C1=O` displayed a half-inhibitory concentration (IC50) greater than 50000 nM.
With `CN1CCn2c(CNS(=O)(=O)c3cccc(Cl)c3)cc(=O)c(O)c2C1=O`, the IC50 is greater than 50000 nM.
Same read-out and setting: the figure for `CC(=O)N(Cc1ccccc1)Cc1cc(=O)c(O)c2n1CCN(C(C)C)C2=O` is greater than 50000 nM; for `CC(C)N1CCn2c(CN(Cc3ccccc3)Cc3ccccc3)cc(=O)c(O)c2C1=O` it is greater than 50000 nM.
On the same count and under the same terms, the figure for `CC(C)N1CCn2c(CNS(=O)(=O)c3ccccc3)cc(=O)c(O)c2C1=O` is greater than 50000 nM; for `CC(C)N1CCn2c(CNS(=O)(=O)c3ccc(Cl)cc3)cc(=O)c(O)c2C1=O` it is greater than 50000 nM.
For the molecule `CC(C)N1CCn2c(CNC(=O)C34CCC(CO)(CC3)CC4)cc(=O)c(O)c2C1=O`, the IC50 was greater than 50000 nM.
As for `CCCN(Cc1ccccc1)Cc1cc(=O)c(O)c2n1CCN(C(C)C)C2=O`, the IC50 is greater than 50000 nM.
The molecule `CC(C)N1CCn2c(CNC(=O)CC(F)(F)F)cc(=O)c(O)c2C1=O` registered an IC50 greater than 50000 nM.
In turn, `CC(C)N1CCn2c(CNC(=O)c3ccc(Cl)cc3)cc(=O)c(O)c2C1=O` returned an IC50 greater than 50000 nM.
With `CC(C)N1CCn2c(CNS(=O)(=O)c3cccc4ccccc34)cc(=O)c(O)c2C1=O`, the half-inhibitory concentration (IC50) was greater than 50000 nM.
In turn, `CC(C)N1CCn2c(CN)cc(=O)c(O)c2C1=O` returned an IC50 greater than 50000 nM.
The same measure, in the same setting: the figure for `CC(=O)N(Cc1cc(=O)c(O)c2n1CCN(C(C)C)C2=O)C1CCCCC1` is greater than 50000 nM; for `CC(C)N1CCn2c(CNS(=O)(=O)c3cccc(F)c3)cc(=O)c(O)c2C1=O` it is greater than 50000 nM; for `Cc1ccccc1S(=O)(=O)NCc1cc(=O)c(O)c2n1CCN(C)C2=O` it is greater than 50000 nM.
